PubChem BioAssay AID1963982 (Molecular Pharmacology Branch, DTP, NCI, 2024)

System: 313798-341-R-J2-PDC spheroids, viability
Experiment: Anticancer human tumor 313798-341-R-J2-PDC patient-derived cervical squamous cell carcinoma cell line growth inhibition [PI3K]
Conditions: spheroids with HUVEC and MSC; for IC50: curve of first compound; for viability, T/C: stronger effect = lower value; active means viability on the fitted dose curve at most 10% of control; inactive means the rest
Text: Combinatorial screen of targeted agents with the PI3K inhibitors inavolisib, alpelisib, duvelisib, and copanlisib in multi-cell type tumor spheroids
A high-throughput screen of multi-cell type tumor spheroids was designed to identify active combinations of targeted small molecules and PI3K pathway inhibitors. Complex spheroids include a stromal component modeled by human endothelial cells (HUVEC) and fibroblasts modeled by human mesenchymal stem cells (MSCs). The concentration ranges selected for each drug and investigational agent were based upon clinically achievable concentrations if the clinical Cmax of the agent was known.
Compounds. The drugs and investigational agents: inavolisib (NSC800729), alpelisib (NSC765974), duvelisib (NSC772469), copanlisib (NSC816437), ipatasertib (NSC767898), afuresertib (NSC778305), talazoparib (NSC767125), sapanisertib (NSC764658), selumetinib (NSC741078), tovorafenib (DAY101, NSC766906), vemurafenib (NSC761431), ravoxertinib (NSC781343), sotorasib (NSC818433), MRTX1133 (NSC 836407), abemaciclib (NSC 768073), palbociclib (NSC758247), venetoclax (NSC 766270), SY5609 (NSC837396), enzalutamide (NSC755605), and darolutamide (NSC825331), were obtained from the National Cancer Institute (NCI) Developmental Therapeutics Program Chemical Repository. The FDA-approved anticancer drug set is available from the NCI Developmental Therapeutics Program. […] The stock solutions were prepared in dimethyl sulfoxide (DMSO, Sigma-Aldrich, St. Louis, MO, cat. D2650) at 800-fold the tested concentration and stored at -70 degrees C prior to their use. All drugs and investigational agents were tested over a range starting from a high concentration at or near the clinical Cmax and decreasing in half-log increments. If the clinical Cmax for an agent had not been determined, the highest concentration tested was 10 microM.
Cell Culture. All cells were maintained in an incubator at 37 degrees C and 5% CO2 with 95% humidity. The PDC lines were cultured according to standard operating procedures established by the NCI PDMR (https://pdmr.cancer.gov/sops/default.htm). All PDCs were thawed and cultured in Matrigel-coated flasks prepared with a working solution of 1X Ham's F-12 nutrient mix, without supplementation (Invitrogen, Waltham, MA, cat. 11765054), 100 U/mL penicillin-streptomycin (Invitrogen, cat. 15140122), and 2.5% Matrigel (Corning Inc., Corning, NY, cat. 354248) for the first three passages. The 354836-022-R-J1-PDC, 475296-252-R-J1-PDC, and 997726-040-R-J2-PDC lines were cultured in 6A media, which includes advanced DMEM/F-12 (Thermo Fisher Scientific, cat. 12634028), 10 mM HEPES (Thermo Fisher Scientific, cat. 15630080), 1X GlutaMAX supplement (Thermo Fisher Scientific, cat. 35050061), 0.1 mg/mL primocin (InvivoGen, San Diego, CA, cat. ant-pm-2), 10% defined fetal bovine serum, heat inactivated (HyClone Laboratories Inc., Logan, UT, cat. SH30070.03HI), 50% L-WRN conditioned media (ATCC, cat. CRL-3276), 1.25 mM N-Acetyl-L-cysteine (Sigma-Aldrich, cat. A9165), 10 mM nicotinamide (Sigma-Aldrich, cat. N0636), 1X B-27 supplement (Thermo Fisher Scientific, cat. 17504044), 1X N-2 supplement (Thermo Fisher Scientific, cat. 17502048), and 10 microM Y-27632 dihydrochloride (Tocris Bioscience, Bristol, United Kingdom, cat. 1254). The 624824-186-R-J2-PDC line was cultured in 6C/Colon 1B media, which includes all 6A media components plus 50 ng/mL human EGF recombinant protein (Thermo Fisher Scientific, cat. PHG0311). […]
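Further: spheroids exposed to compounds for seven days.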

C[C@@H](NC(=O)c1ncnc(N)c1Cl)c1ncc(C(=O)Nc2cc(C(F)(F)F)c(Cl)cn2)s1 + COc1c(OCCCN2CCOCC2)ccc2c3n(c(=NC(=O)c4cnc(N)nc4)nc12)CCN3
inactive: viability, T/C (second compound 0.00316 µM, first compound 0.0316 µM) 99.2% | viability, T/C (second compound 0.00316 µM, first compound 0.1 µM) 99% | viability, T/C (second compound 0.00316 µM, first compound 0.316 µM) 102% | viability, T/C (second compound 0.00316 µM, first compound 1 µM) 107% | viability, T/C (second compound 0.00316 µM, first compound 3.16 µM) 114% | viability, T/C (second compound 0.00316 µM, first compound 10 µM) 111% | viability, T/C (second compound 0.01 µM, first compound 0.0316 µM) 92.4% | viability, T/C (second compound 0.01 µM, first compound 0.1 µM) 95.5% | viability, T/C (second compound 0.01 µM, first compound 0.316 µM) 88.2% | viability, T/C (second compound 0.01 µM, first compound 1 µM) 104% | viability, T/C (second compound 0.01 µM, first compound 3.16 µM) 104% | viability, T/C (second compound 0.01 µM, first compound 10 µM) 103% | viability, T/C (second compound 0.0316 µM, first compound 0.0316 µM) 73.6% | viability, T/C (second compound 0.0316 µM, first compound 0.1 µM) 84.1% | viability, T/C (second compound 0.0316 µM, first compound 0.316 µM) 84.4% | viability, T/C (second compound 0.0316 µM, first compound 1 µM) 89.9% | viability, T/C (second compound 0.0316 µM, first compound 3.16 µM) 97.2% | viability, T/C (second compound 0.0316 µM, first compound 10 µM) 96.9% | viability, T/C (second compound 0.1 µM, first compound 0.0316 µM) 54% | viability, T/C (second compound 0.1 µM, first compound 0.1 µM) 45.5% | viability, T/C (second compound 0.1 µM, first compound 0.316 µM) 46.5% | viability, T/C (second compound 0.1 µM, first compound 1 µM) 48% | viability, T/C (second compound 0.1 µM, first compound 3.16 µM) 50.5% | viability, T/C (second compound 0.1 µM, first compound 10 µM) 46.4% | viability, T/C (second compound 0.316 µM, first compound 0.0316 µM) 17.9% | viability, T/C (second compound 0.316 µM, first compound 0.1 µM) 20.6% | viability, T/C (second compound 0.316 µM, first compound 0.316 µM) 19.9% | viability, T/C (second compound 0.316 µM, first compound 1 µM) 19.6% | viability, T/C (second compound 0.316 µM, first compound 3.16 µM) 23.1% | viability, T/C (second compound 0.316 µM, first compound 10 µM) 16.5% | viability, T/C (second compound 1 µM, first compound 0.0316 µM) 11.7% | viability, T/C (second compound 1 µM, first compound 0.1 µM) 12.9% | viability, T/C (second compound 1 µM, first compound 0.316 µM) 13.2% | viability, T/C (second compound 1 µM, first compound 1 µM) 13.3% | viability, T/C (second compound 1 µM, first compound 3.16 µM) 14.5% | viability, T/C (second compound 1 µM, first compound 10 µM) 12.5%
< 31.6 nM: IC50 (second compound 0.316 µM) | IC50 (second compound 1 µM)
> 10000 nM: IC50 (second compound 0.00316 µM) | IC50 (second compound 0.01 µM) | IC50 (second compound 0.0316 µM)
34.9 nM: IC50 (second compound 0.1 µM)
